COC(=O)c1ccccc1S(N)(=O)=O
Details | solubility (mole fraction)
in 2-butanone, 273.15 K | 0.028
in 2-butanone, 278.15 K | 0.0329
in 2-butanone, 283.15 K | 0.0385
in 2-butanone, 287.95 K | 0.0446
in 2-butanone, 293.85 K | 0.0529
in 2-butanone, 298.75 K | 0.0609
in 2-butanone, 303.45 K | 0.0691
in 2-butanone, 308.15 K | 0.0784
in 2-butanone, 313.85 K | 0.0907
in 2-butanone, 318.65 K | 0.102
in 2-butanone, 324.15 K | 0.117
in 2-pentanone, 273.15 K | 0.0185
in 2-pentanone, 278.15 K | 0.0218
in 2-pentanone, 283.15 K | 0.0256
in 2-pentanone, 287.95 K | 0.0298
in 2-pentanone, 293.85 K | 0.0355
in 2-pentanone, 298.75 K | 0.0409
in 2-pentanone, 303.45 K | 0.0466
in 2-pentanone, 308.15 K | 0.053
in 2-pentanone, 313.85 K | 0.0617
in 2-pentanone, 318.65 K | 0.0695
in 2-pentanone, 324.15 K | 0.0797
in acetone, 273.15 K | 0.0414
in acetone, 278.15 K | 0.0483
in acetone, 283.15 K | 0.0561
in acetone, 287.95 K | 0.0643
in acetone, 293.85 K | 0.0757
in acetone, 298.75 K | 0.0863
in acetone, 303.45 K | 0.0976
in acetone, 308.15 K | 0.11
in acetone, 313.85 K | 0.126
in acetone, 318.65 K | 0.141
in acetone, 324.15 K | 0.16
in acetonitrile, 273.15 K | 0.0188
in acetonitrile, 278.15 K | 0.0231
in acetonitrile, 283.15 K | 0.0282
in acetonitrile, 287.95 K | 0.0339
in acetonitrile, 293.85 K | 0.0423
in acetonitrile, 298.75 K | 0.0504
in acetonitrile, 303.45 K | 0.0594
in acetonitrile, 308.15 K | 0.0695
in acetonitrile, 313.85 K | 0.0835
in acetonitrile, 318.65 K | 0.0975
in acetonitrile, 324.15 K | 0.115
in cyclopentanone, 273.15 K | 0.0537
in cyclopentanone, 278.15 K | 0.0616
in cyclopentanone, 283.15 K | 0.0704
in cyclopentanone, 287.95 K | 0.0795
in cyclopentanone, 293.85 K | 0.092
in cyclopentanone, 298.75 K | 0.103
in cyclopentanone, 303.45 K | 0.115
in cyclopentanone, 308.15 K | 0.128
in cyclopentanone, 313.85 K | 0.145
in cyclopentanone, 318.65 K | 0.16
in cyclopentanone, 324.15 K | 0.179
in ethanol, 272.15 K | 0.00172
in ethanol, 278.75 K | 0.00252
in ethanol, 283.15 K | 0.00322
in ethanol, 288.15 K | 0.0042
in ethanol, 293.05 K | 0.0054
in ethanol, 298.05 K | 0.00692
in ethanol, 303.15 K | 0.00887
in ethanol, 308.05 K | 0.0112
in ethanol, 312.15 K | 0.0134
in ethanol, 318.15 K | 0.0175
in ethanol, 324.15 K | 0.0226
in ethyl acetate, 273.15 K | 0.0112
in ethyl acetate, 278.15 K | 0.0135
in ethyl acetate, 283.15 K | 0.0162
in ethyl acetate, 287.95 K | 0.0192
in ethyl acetate, 293.85 K | 0.0236
in ethyl acetate, 298.75 K | 0.0278
in ethyl acetate, 303.45 K | 0.0323
in ethyl acetate, 308.15 K | 0.0373
in ethyl acetate, 313.85 K | 0.0444
in ethyl acetate, 318.65 K | 0.0509
in ethyl acetate, 324.15 K | 0.0596
in ethyl formate, 273.15 K | 0.00969
in ethyl formate, 278.15 K | 0.0119
in ethyl formate, 283.15 K | 0.0145
in ethyl formate, 287.95 K | 0.0174
in ethyl formate, 293.85 K | 0.0215
in ethyl formate, 298.75 K | 0.0256
in ethyl formate, 303.45 K | 0.03
in ethyl formate, 308.15 K | 0.0351
in ethyl formate, 313.85 K | 0.0421
in ethyl formate, 318.65 K | 0.049
in ethyl formate, 324.15 K | 0.0578
in isobutanol, 272.15 K | 0.000673
in isobutanol, 278.75 K | 0.001
in isobutanol, 283.15 K | 0.00129
in isobutanol, 288.15 K | 0.00171
in isobutanol, 293.05 K | 0.00224
in isobutanol, 298.05 K | 0.00291
in isobutanol, 303.15 K | 0.00378
in isobutanol, 308.05 K | 0.00479
in isobutanol, 312.15 K | 0.00586
in isobutanol, 318.15 K | 0.00775
in isobutanol, 324.15 K | 0.0101
in isopentanol, 272.15 K | 0.000712
in isopentanol, 278.75 K | 0.00105
in isopentanol, 283.15 K | 0.00135
in isopentanol, 288.15 K | 0.00177
in isopentanol, 293.05 K | 0.00229
in isopentanol, 298.05 K | 0.00296
in isopentanol, 303.15 K | 0.00381
in isopentanol, 308.05 K | 0.00483
in isopentanol, 312.15 K | 0.00586
in isopentanol, 318.15 K | 0.00764
in isopentanol, 324.15 K | 0.00989
in isopropanol, 272.15 K | 0.000871
in isopropanol, 278.75 K | 0.00134
in isopropanol, 283.15 K | 0.00176
in isopropanol, 288.15 K | 0.00239
in isopropanol, 293.05 K | 0.00317
in isopropanol, 298.05 K | 0.00422
in isopropanol, 303.15 K | 0.00557
in isopropanol, 308.05 K | 0.00726
in isopropanol, 312.15 K | 0.00894
in isopropanol, 318.15 K | 0.0121
in isopropanol, 324.15 K | 0.0161
in methanol, 272.15 K | 0.00311
in methanol, 278.75 K | 0.00462
in methanol, 283.15 K | 0.00595
in methanol, 288.15 K | 0.00788
in methanol, 293.05 K | 0.0102
in methanol, 298.05 K | 0.0133
in methanol, 303.15 K | 0.0171
in methanol, 308.05 K | 0.0217
in methanol, 312.15 K | 0.0264
in methanol, 318.15 K | 0.0348
in methanol, 324.15 K | 0.0454
in methyl acetate, 273.15 K | 0.0162
in methyl acetate, 278.15 K | 0.0196
in methyl acetate, 283.15 K | 0.0235
in methyl acetate, 287.95 K | 0.0279
in methyl acetate, 293.85 K | 0.0341
in methyl acetate, 298.75 K | 0.04
in methyl acetate, 303.45 K | 0.0465
in methyl acetate, 308.15 K | 0.0537
in methyl acetate, 313.85 K | 0.0637
in methyl acetate, 318.65 K | 0.0731
in methyl acetate, 324.15 K | 0.0851
in n-butanol, 272.15 K | 0.00092
in n-butanol, 278.75 K | 0.00137
in n-butanol, 283.15 K | 0.00177
in n-butanol, 288.15 K | 0.00234
in n-butanol, 293.05 K | 0.00307
in n-butanol, 298.05 K | 0.004
in n-butanol, 303.15 K | 0.00518
in n-butanol, 308.05 K | 0.00659
in n-butanol, 312.15 K | 0.00801
in n-butanol, 318.15 K | 0.0106
in n-butanol, 324.15 K | 0.0139
in n-pentanol, 272.15 K | 0.000797
in n-pentanol, 278.75 K | 0.00118
in n-pentanol, 283.15 K | 0.0015
in n-pentanol, 288.15 K | 0.00197
in n-pentanol, 293.05 K | 0.00255
in n-pentanol, 298.05 K | 0.0033
in n-pentanol, 303.15 K | 0.00424
in n-pentanol, 308.05 K | 0.00534
in n-pentanol, 312.15 K | 0.0065
in n-pentanol, 318.15 K | 0.00849
in n-pentanol, 324.15 K | 0.011
in n-propanol, 272.15 K | 0.00106
in n-propanol, 278.75 K | 0.00159
in n-propanol, 283.15 K | 0.00206
in n-propanol, 288.15 K | 0.00274
in n-propanol, 293.05 K | 0.00357
in n-propanol, 298.05 K | 0.00469
in n-propanol, 303.15 K | 0.00609
in n-propanol, 308.05 K | 0.00778
in n-propanol, 312.15 K | 0.00946
in n-propanol, 318.15 K | 0.0125
in n-propanol, 324.15 K | 0.0164
